Measurements published in US20150290105A1, “COMPOSITION COMPRISING SYRINGARESINOL FOR IMPROVING THE SKIN” (AMOREPACIFIC CORPORATION, priority 2011, published 2015).
Values belong to the compound of their own block, whether it stands above or below them.

Legend:
[1] = Skin whitening effect when applied to UVB-tanned human skin; format: in vivo; settings: 1% applied on upper arm after UVB, 10 weeks, 12 male subjects
Method: First, opaque tapes having holes of 1.5 cm in diameter were attached on the upper arms of 12 healthy male subjects and UVB of about 1.5-2 times the minimal erythemal dose was irradiated to each subject to induce skin tanning. […] Then, the change was monitored for 10 weeks. The color of the skin was measured with 1-week interval using the CR2002 colorimeter (Minolta, Japan). The change in skin color (ΔL*) between the time when the test substance was applied and the time when the test was completed was calculated according to Equation 3. Skin whitening effect is evaluated by comparing the ΔL* of the part where the test substance was applied with that of the control part. A ΔL* value of about 2 can be interpreted as distinct skin whitening effect and one about 1.5 can be evaluated as positive skin whitening effect.
ΔL*=(L* when test was completed)−(L* when test substance was applied) [Equation 3]

[2] = test system: Melanocytes (Mel-Ab cells); assay: Melanin production inhibiting effect in mouse melanocytes; format: cell-based; settings: Mus musculus, Mel-Ab; read-out: Melanin production inhibiting rate (%)
Method: The melanin production inhibiting effect of the syringaresinol obtained in Example was evaluated using mouse melanocytes. First, melanocytes (Mel-Ab cells) derived from C57BL/6 (treated with Dooley et al.'s method) were cultured under the condition of 37° C. and 5% CO2 in Dulbecco's modified Eagle's medium (DMEM) containing 10% fetal bovine serum, 100 nM 12-O-tetradecanoylphorbol-13-acetate and 1 nM cholera toxin. […] After removing the culture medium and washing with PBS, the cells were dissolved with 1 N sodium hydroxide and absorbance was measured at 400 nm. Melanin production inhibiting rate (%) was calculated according to Equation 2 from the measured absorbance. Melanin production inhibiting rate (%)=100−(Absorbance of test substance) /(Absorbance of control substance)×100 [Equation 2]

[3] = Skin whitening effect when orally administered, UV-irradiated brown guinea pig; format: in vivo; settings: 1% in feed, 5 weeks, oral
Method: Minimal erythemal dose was measured after irradiating UV to guinea pigs. After grouping the guinea pigs with 10 per each group, UV of the minimal erythemal dose was irradiated once a day, for a total of 3 times. The guinea pigs were allowed free access to feed for 5 weeks. The feed contained 1% syringaresinol or 1% vitamin C (Vit C) as a positive control. Skin pigmentation was measure using a colorimeter in substantially the same manner as in Test Example 6.

[4] = test system: mushroom-derived tyrosinase; assay: Tyrosinase activity inhibiting effect (dopachrome formation); format: biochemical; settings: 10 ppm, 37° C. 10 minutes
Method: The reaction solution was prepared by adding 500 μL of 0.1 M PBS, 15 μg of L-tyrosine and 50 μL of syringaresinol and then adding distilled water to make the final volume 1500 μL. A solution prepared through the same procedure but with Kojic acid instead of syringaresinol was used as a positive control. The concentration of all the samples used in experiment was set to 10 ppm. After adding 10 units of mushroom-derived tyrosinase to the reaction solution, followed by reaction at 37° C. for 10 minutes, the reaction was stopped by quickly transferring onto ice for 5 minutes. The synthesis rate of dopachrome produced was determined by measuring absorbance at 475 nm and tyrosinase activity inhibiting rate (%) was calculated therefrom.

SMILES: Oc1ccc(O)cc1 [Hydroquinone, hydroquinone, reference compound]
- Change in skin brightness (ΔL*) [1]: 1.71 ± 0.31
- inhibition at 10 ppm [2]: 58.9%

SMILES: O=C1O[C@H]([C@@H](O)CO)C(O)=C1O [Vitamin C, vitamin C, reference compound]
- Skin color brightness (ΔL*) [3]: 1.48 ± 0.71

- Tyrosinase activity inhibiting rate (%) [4]: 67.8%
SMILES: O=c1cc(CO)occ1O [Kojic acid, reference compound]
